Legend:
MOLM-13 = assay: Proliferation inhibition (CellTiter-Glo) in MOLM-13 cells; type: cell-based; settings: Homo sapiens, 96 h, MOLM-13 AML cells, heterozygous FLT3-ITD, IC50 (4 days)
Summary of the method: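 MOLM-13 human AML cells, heterozygous for FLT3-ITD, were grown in RPMI-1640 with 10% heat-inactivated FBS and 1% Pen-Strep. About 10,000 cells in 200 μL were seeded per well of 96-well plates. After 2 hours, compounds from DMSO stocks were dispensed at eight concentrations in duplicate, with 0.2% DMSO as the untreated control. Viability was read as CellTiter-Glo ATP luminescence, and IC50 was obtained from a four-parameter logistic fit.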

MV-4-11 = assay: Proliferation inhibition (CellTiter-Glo) in MV-4-11 cells; type: cell-based; settings: Homo sapiens, MV4-11, 96 h, MV-4-11 AML cells, homozygous FLT3-ITD, IC50 (4 days)
Summary of the method: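 MV-4-11 human AML cells (homozygous FLT3-ITD) grown in RPMI-1640 with 10% heat-inactivated FBS and 1% Pen-Strep were seeded at about 10,000 cells per 200 μL in 96 well plates. Two hours later, compounds were dispensed at eight concentrations in duplicate. Viability was measured by CellTiter-Glo luminescence, and IC50 values came from four-parameter logistic non-linear regression against untreated cells (0.2% DMSO).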

K-562 = assay: Proliferation inhibition (CellTiter-Glo) in K-562 cells; type: cell-based; settings: Homo sapiens, K562, 96 h, K-562 CML cells, no FLT3 mutations, IC50 (4 days)
Summary of the method: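 The CML line […] (ATCC: CRL-3343) was cultured in RPMI-1640 with 10% heat-inactivated FBS and 1% Pen-Strep at 37° C. Cells were seeded at about 10,000 per 200 μL in 96-well plates, and test compound was dispensed 2 hours later at eight concentrations in duplicate. Viability was measured as ATP luminescence with CellTiter-Glo. Untreated cells (0.2% DMSO) defined 100% proliferation, and IC50 values came from four-parameter logistic fits.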

[1] = tested on: quizartinib-resistant AML; settings: Yamaura et al., 2018; cited from earlier work

IC50 (MOLM-13) | IC50 (MV-4-11) | IC50 (K-562) | SMILES | activity against quizartinib-resistant AML [1]
< 0.001 µM | < 0.001 µM | > 0.5 µM | CCc1nc(C(N)=O)c(Nc2cccc(OCCCNC(=O)[C@H](C)N(C)C(=O)/C=C/CN(C)C)c2)nc1N(CC)CC [Compound 141, (S,E)-5-(diethylamino)-3-((3-(3-(2-(4-(dimethylamino)-N-methylbut-2-enamido)propanamido)propoxy)phenyl)amino)-6-ethylpyrazine-2-carboxamide] | –
0.001 to 0.01 µM | 0.001 to 0.01 µM | > 0.5 µM | CCc1nc(C(N)=O)c(Nc2cccc(OCCCNC(=O)[C@H](C)N(C)C(=O)/C=C/CN(C)C)c2)nc1N1CCCC1 [Compound 142, (S,E)-3-((3-(3-(2-(4-(dimethylamino)-N-methylbut-2-enamido)propanamido)propoxy)phenyl)amino)-6-ethyl-5-(pyrrolidin-1-yl)pyrazine-2-carboxamide] | –
0.001 to 0.01 µM | < 0.001 µM | > 0.5 µM | CCc1nc(C(N)=O)c(Nc2cccc(OCCCNC(=O)[C@H](C)N(C)C(=O)/C=C/CN(C)C)c2)nc1N(C)C(C)C [Compound 145, (S,E)-3-((3-(3-(2-(4-(dimethylamino)-N-methylbut-2-enamido)propanamido)propoxy)phenyl)amino)-6-ethyl-5-(isopropyl(methyl)amino)pyrazine-2-carboxamide] | –
0.001 to 0.01 µM | < 0.001 µM | > 0.5 µM | CCc1nc(C(N)=O)c(Nc2cccc(OCCCNC(=O)[C@H](C)N(C)C(=O)/C=C/CN(C)C)c2)nc1N(C)CC [Compound 146, (S,E)-3-((3-(3-(2-(4-(dimethylamino)-N-methylbut-2-enamido)propanamido)propoxy)phenyl)amino)-6-ethyl-5-(ethyl(methyl)amino)pyrazine-2-carboxamide] | –
0.001 to 0.01 µM | 0.001 to 0.01 µM | > 0.5 µM | CCc1nc(C(N)=O)c(Nc2cccc(OCCCNC(=O)[C@H](C)N(C)C(=O)/C=C/CN(C)C)c2)nc1N1CCC1 [Compound 148, (S,E)-5-(azetidin-1-yl)-3-((3-(3-(2-(4-(dimethylamino)-N-methylbut-2-enamido)propanamido)propoxy)phenyl)amino)-6-ethylpyrazine-2-carboxamide] | –
0.001 to 0.01 µM | < 0.001 µM | > 0.5 µM | CCc1nc(C(N)=O)c(Nc2cc(F)cc(OCCCNC(=O)[C@H](C)N(C)C(=O)/C=C/CN(C)C)c2)nc1N(C)C [Compound 149, (S,E)-5-(dimethylamino)-3-((3-(3-(2-(4-(dimethylamino)-N-methylbut-2-enamido)propanamido)propoxy)-5-fluorophenyl)amino)-6-ethylpyrazine-2-carboxamide] | –
> 0.5 µM | > 0.5 µM | > 0.5 µM | CCc1nc(C(=O)NC)c(Nc2cccc(CCNC(=O)C(C)N(C)C(=O)/C=C/CN(C)C)c2)nc1NC1CCOCC1 (stereo not shown) [Compound 152, (E)-3-((3-(2-(2-(4-(dimethylamino)-N-methylbut-2-enamido)propanamido)ethyl)phenyl)amino)-6-ethyl-N-methyl-5-((tetrahydro-2H-pyran-4-yl)amino)pyrazine-2-carboxamide] | –
0.01 to 0.1 µM | 0.01 to 0.1 µM | > 0.5 µM | CCc1nc(C(N)=O)c(Nc2cc(F)cc(O[C@H](C)CNC(=O)C(C)N(C)C(=O)/C=C/CN(C)C)c2)nc1N(C)C (stereo partly drawn) [Compound 155, 5-(dimethylamino)-3-((3-(((2R)-1-(2-((E)-4-(dimethylamino)-N-methylbut-2-enamido)propanamido)propan-2-yl)oxy)-5-fluorophenyl)amino)-6-ethylpyrazine-2-carboxamide] | –
> 0.5 µM | 0.01 to 0.1 µM | > 0.5 µM | CC#CC(=O)N(C)[C@@H](C)C(=O)NCCc1cccc(Nc2nc(C)c(CC)nc2C(N)=O)c1 [Compound 206, 3-[3-[2-[[(2S)-2-[but-2-ynoyl(methyl)amino]propanoyl]amino]ethyl]anilino]-6-ethyl-5-methyl-pyrazine-2-carboxamide] | –
> 0.5 µM | 0.01 to 0.1 µM | > 0.5 µM | CC#CC(=O)N(C)[C@@H](C)C(=O)NCCc1cccc(Nc2nc(C3CC3)c(C)nc2C(N)=O)c1 [Compound 235, (S)-5-cyclopropyl-6-methyl-3-((3-(2-(2-(N-methylbut-2-ynamido)propanamido)ethyl)phenyl)amino)pyrazine-2-carboxamide] | –

Second part, the compound before the results:

SMILES | IC50 (MOLM-13) | IC50 (MV-4-11) | IC50 (K-562) | activity against quizartinib-resistant AML [1]
CCc1nc(C(N)=O)c(Nc2cccc(OCCCNC(=O)[C@H](C)N(C)C/C=C/C(=O)N(C)C)c2)nc1NC1CCOCC1 [Compound 140, (S,E)-3-((3-(3-(2-((4-(dimethylamino)-4-oxobut-2-en-1-yl)(methyl)amino)propanamido)propoxy)phenyl)amino)-6-ethyl-5-((tetrahydro-2H-pyran-4-yl)amino)pyrazine-2-carboxamide] | 0.01 to 0.1 µM | 0.01 to 0.1 µM | > 0.5 µM | –
CCc1nc(C(N)=O)c(Nc2cccc(OCCCNC(=O)[C@H](C)N(C)C(=O)/C=C/CN3CC(F)(F)C3)c2)nc1NC1CCOCC1 [Compound 147, (S,E)-3-((3-(3-(2-(4-(3,3-difluoroazetidin-1-yl)-N-methylbut-2-enamido)propanamido)propoxy)phenyl)amino)-6-ethyl-5-((tetrahydro-2H-pyran-4-yl)amino)pyrazine-2-carboxamide] | > 0.5 µM | 0.01 to 0.1 µM | > 0.5 µM | –
CCc1nc(C(=O)NC)c(Nc2cc(F)cc(OCCCNC(=O)C(C)N(C)C(=O)/C=C/CN(C)C)c2)nc1N(C)C (stereo not shown) [Compound 151, (E)-5-(dimethylamino)-3-((3-(3-(2-(4-(dimethylamino)-N-methylbut-2-enamido)propanamido)propoxy)-5-fluorophenyl)amino)-6-ethyl-N-methylpyrazine-2-carboxamide] | > 0.5 µM | > 0.5 µM | > 0.5 µM | –
CCc1nc(C(N)=O)c(Nc2cc(F)cc(O[C@@H](C)CNC(=O)[C@H](C)N(C)C(=O)/C=C/CN(C)C)c2)nc1N(C)C [Compound 153, 5-(dimethylamino)-3-((3-(((S)-1-((S)-2-((E)-4-(dimethylamino)-N-methylbut-2-enamido)propanamido)propan-2-yl)oxy)-5-fluorophenyl)amino)-6-ethylpyrazine-2-carboxamide] | 0.01 to 0.1 µM | 0.001 to 0.01 µM | > 0.5 µM | –
CCc1nc(C(N)=O)c(Nc2cccc(CCNC(=O)C3(N(C)C(=O)/C=C/CN(C)C)CCC3)c2)nc1C [Compound 210, (E)-3-((3-(2-(1-(4-(dimethylamino)-N-methylbut-2-enamido)cyclobutane-1-carboxamido)ethyl)phenyl)amino)-6-ethyl-5-methylpyrazine-2-carboxamide] | > 0.5 µM | 0.01 to 0.1 µM | > 0.5 µM | –
CC#CC(=O)N(C)[C@@H](C)C(=O)NCCc1cccc(Nc2nc(C)c(C)nc2C(N)=O)c1 [Compound 212, (S)-5,6-dimethyl-3-((3-(2-(2-(N-methylbut-2-ynamido)propanamido)ethyl)phenyl)amino)pyrazine-2-carboxamide] | > 0.5 µM | > 0.5 µM | > 0.5 µM | –
CCc1nc(C(N)=O)c(Nc2cccc(CCNC(=O)C(C)(C)N(C)C(=O)/C=C/CN(C)C)c2)nc1C [Compound 229, (E)-3-((3-(2-(2-(4-(dimethylamino)-N-methylbut-2-enamido)-2-methylpropanamido)ethyl)phenyl)amino)-6-ethyl-5-methylpyrazine-2-carboxamide] | > 0.5 µM | > 0.5 µM | > 0.5 µM | –
CCCNc1nc(Nc2ccc(C#N)cc2)ncc1C#CCCCNC(=O)[C@H](C)N(C)C(=O)/C=C/CN(C)C [FF-10101] | – | – | – | demonstrated activity

From US20250136558A1, “PYRAZINE COMPOUNDS AS IRREVERSIBLE INHIBITORS OF FLT3” (BIOMEA FUSION, INC., priority 2021, published 2025)
